Measured values as given in patent US20230128770A1, “COMPOSITIONS AND METHODS FOR ENHANCING DIFFERENTIATION OF STEM CELL-DERIVED BETA CELLS” (President and Fellows of Harvard College, priority 2019, published 2023).

How the values were obtained:
[1] = tested on: hPSC-derived MPPs differentiating into NGN3+ / CHGA+ endocrine progenitors; experiment: Endocrine specification of MPPs at stage 5, flow cytometry and qPCR; assay type: cell-based, human; settings: for CHGA+/NKX6-1+ endocrine progenitor cells by the end of stage 5: assayed at stage 5, day 7
Description: (§1) Differentiations into SC-β cells were performed following a protocol described in [3] and as follows: HUES8 or 1016 cells were seeded at 6×10^5 cells/mL in mTeSR1 media and […] Y27632 (Sigma-Aldrich). The media was changed 48 h later and the differentiations were started 72 h after the cells were seeded. The media changes were as follows:
(§2) Stage 5 EN: Days 14 and 16: S5+0.25 μM Sant1+100 nM RA+1 μM XXI (EMD Millipore)+10 μM Alk5i II (Axxora)+1 μM T3 (EMD Millipore)+20 ng/mL Betacellulin (Thermo Fisher Scientific). Days 18, 20: S5+25 nM RA+1 μM XXI+10 μM Alk5i II+1 μM T3+20 ng/mL Betacellulin.
(§3) Control and experimental samples were collected from differentiations performed in parallel with hPSC cells obtained from the same maintenance batch. Treatments with 0.35 μM verteporfin (Sigma-Aldrich), 10 μM roscovitine (Sellekchem), or DMSO (Sigma-Aldrich) were performed at the last stages of the differentiation including stage 4 (days 9-14), stage 5 (days 14-18), and stage 6 (day 18-25, first 7 days) in ultra-low attachment six-well plates (Corning).
(§4) Differentiated cell clusters were dispersed into a single-cell suspension with TrypLE (Life Technologies) at RT, fixed with 4% paraformaldehyde at 4° C., washed three times in PBS+0.2% bovine serum albumin (Millipore)+0.1% saponin (Sigma), blocked for 30 min at 4° C. in PBS+5% donkey serum+0.1% saponin, incubated with primary antibodies overnight at 4° C., washed, and incubated with secondary antibodies for 1 h at RT. Stained, fixed cells were filtered through a 40-μm nylon mesh into flow cytometry tubes (BD Falcon) and were analyzed for relevant stage-specific marker expression using LSR II flow cytometers (BD Biosciences) and FlowJo for the data analysis. Samples stained with secondary antibodies only were used to gate on cells that are negative and accurately identified cells expressing the markers included in the analysis. For shRNA-infected samples, only infected GFP+ cells were included in the analysis (approximately in 30-40% of all cells). To quantify incorporation of EdU and estimate levels of proliferation, cells pulsed with 10 μM EdU for 4 h were dissociated as described above unless stated otherwise. The Click-IT EdU flow cytometry kit (Invitrogen) was used to detect EdU incorporation following the manufacturer's protocol with minor modifications.
The total RNA was isolated using the Direct-ZOL Miniprep kit (Zymo Research), and RNA was stored at −80° C. in RNA storage solution (Invitrogen) until subsequent analysis. […] Gene expression levels were determined with NanoString nSolver software with default parameters and normalized with the expression of five housekeeping genes (ITCH, RPL15, RPL19, TCEB1, and UBE2D3). […]

SC-β cell grafts = experiment: Mouse transplantation analysis of SC-β cell grafts under the kidney capsule; assay type: in vivo, immunodeficient SCID-beige mice
Description: Cell clusters were collected at the end of each of the differentiation stages and fixed with 4% paraformaldehyde for 1 h at RT, washed in 30% sucrose, embedded in OCT compound (Tissue-Tek) and sectioned for histological analysis. Clusters were blocked with PBS+ 0.1% Triton X-100 (VWR)+5% donkey serum (Jackson Immunoresearch) for 30 min at RT, incubated with primary antibodies overnight at 4° C., washed, and incubated with secondary antibodies for 1 h at RT. Stained clusters were washed and mounted in Flouromount-G (Invitrogen), covered with coverslips, and sealed with nail polish. Images were taken using a Zeis Axio Imager.Z2 and Apotome.2. Image analysis was performed with ImageJ. To estimate the relative proportion of cells in the graft, four tissue sections from different areas in the graft were imaged, and the relative proportions of relevant cell types were quantified as a percent of cells positive for the relevant marker of the total number DAPI nuclei. […]
Dissociated SC-β cells were transplanted into the kidney capsule of immunodeficient SCID-beige mice (Jackson Laboratory), aged 8-10 weeks. […] Wound clips were removed 10 days after surgery and mice were monitored twice a week.
Mice were then analyzed for graft function at various time points by performing in vivo [3]. […]

SC-β cells = experiment: Glucose-stimulated insulin secretion (GSIS) in vitro; assay type: cell-based, human
Description: Approximately 1×10^6 SC-β cells in clusters were washed with Krebs buffer and incubated in low (2.8 mM) glucose Krebs in cell culture inserts (Millicell) to starve cells and remove residual insulin at 37° C. for 1 h. Clusters were washed and incubated in low glucose Krebs for 1 h and the supernantant was collected. They were then transferred to high (20 mM) glucose, incubated for 1 h and the supernatant was collected. For sequential GSIS challenges, this sequence of low- and high-glucose stimulations was repeated twice. At the end, clusters were incubated in 2.8 mM glucose+30 mM KCl Krebs (depolarization challenge) for 1 h and the supernatant was collected. Clusters were dispersed into single cells using TrypLE and cell number was estimated by a Vi-Cell counter (Beckman Coulter). Insulin concentration was determined for supernatant samples using the Human Ultrasensitive Insulin ELISA (ALPCO Diagnostics). Protein extraction was performed with the M-PER extraction reagent (Thermo Scientific), and insulin content was measured for each sample using the human Ultrasensitive Insulin ELISA kit. Insulin secretion levels were normalized to total insulin content for each sample. Stimulation indexes were calculated as a ratio of insulin secretion at high glucose (20 mM) relative to the basal secretion (2.8 mM glucose).

[2] = tested on: hPSC-derived multipotent pancreatic progenitors (MPPs); assay type: cell-based, human; settings: 0.35 μM verteporfin during stage 4, vs DMSO
Description: as §1
Control and experimental samples were collected from differentiations performed in parallel with hPSC cells obtained from the same maintenance batch. […]
as §4, with “Samples stained with secondary antibodies only were used to gate on cells that are negative and accurately identified cells expressing the markers included in the analysis. For shRNA-infected samples, only infected GFP+ cells were included in the analysis (approximately in 30-40% of all cells).” left out, “The Click-IT EdU flow cytometry kit (Invitrogen) was used to detect EdU incorporation following the manufacturer's protocol with minor modifications.” left out

[3] = tested on: stem cell-derived β cells (SC-β cells); experiment: SC-β cell differentiation assayed at end of stage 6 (stage 6, day 14), flow cytometry; assay type: cell-based, human
Description: as §1, §2
Stage 6 (3: Days 21-35 (change every other day): S3 media. In the final stage, cells were analyzed between 28 and 35 days of the protocol.
as §3
For infection, cell clusters collected from spinner flask suspension cultures were dissociated in Accutase (StemCell Technologies) for 10 min, followed by mechanical dissociation and centrifugation at 230 g for 5 min at room temperature (RT). Cell pellets were resuspended at a density of 2.5 million cells/mL in the stage-matched medium with polybrene reagent (Santa Cruz) at 8 μg/mL. Single-cell suspensions were combined with concentrated lentiviral particles and plated on ultra-low attachment six-well plates on a rocker plate set at 70 rpm in a 37° C. incubator, 5% CO2, and 100% humidity. Feeding schedule was followed depending on the stage of differentiation as described above.
as §4

| Compound | differentiation of MPPs into NGN3+ endocrine progenitors (in words) ([1]; 10 μM roscovitine at stage 5, stage 5, day 4, compared with the verteporfin effect) | CHGA+/NKX6-1+ endocrine progenitor cells by the end of stage 5 ([1]; treatment during stage 5) | proportion of SOX9+ cells in the grafts (SC-β cell grafts; cells differentiated in the presence of verteporfin, 12-week post transplantation, SOX9+ of DAPI+, control grafts ~17%) [%] | in vivo glucose-stimulated human insulin secretion (SC-β cell grafts; grafts of cells differentiated in the presence of verteporfin, serum human insulin before and 30 min after glucose injection, 8 weeks post transplantation) | levels of insulin secretion per total insulin content at 2.8 mM glucose, 20 mM glucose, and 30 mM KCl (SC-β cells; SC-β cells differentiated with verteporfin vs DMSO control) | insulin secretion at high glucose over low glucose in sequential glucose stimulations (SC-β cells; verteporfin during stages 5 and 6, 20 mM vs 2.8 mM glucose) | stimulation indexes (insulin secretion at 20 mM relative to 2.8 mM glucose) (SC-β cells; verteporfin-treated vs control endocrine cells) | proportion of MPPs coexpressing the proliferation marker Ki67 ([2]; PDX1/Ki67 at end of stage 4) | number of NKX6.1+ progenitors compared with control differentiations ([2]; PDX1/NKX6.1 co-positive cells at end of stage 4) | proportion of NGN3+ endocrine progenitors ([1]; treatment during stage 5, assayed at stage 5, day 4, DMSO control 6.4±0.52%) [%] | proportion of C-peptide+/NKX6.1+ β cells ([3]; 0.35 μM verteporfin, end of stage 6, control 27.5±4.2%) [%] | glucagon+/C-peptide- alpha cells ([3]; 0.35 μM verteporfin, end of stage 6, vs control) | effect on SC-endocrine and β-cell differentiation in other hPSC cell lines ([3]; 1016 and 13B iPSC lines, C-peptide/NKX6.1 and CHGA/NKX6.1 at stage 6 day 14) | proportion of SOX9+ ductal-like progenitor cells ([3]; treatment during endocrine and β-cell differentiation stages, end of stage 6, vs control) | proportion of Ki67+ proliferating cells ([3]; verteporfin during endocrine and β-cell differentiation stages, end of stage 6, vs control) | impaired endocrine differentiation upon YAPS6A overexpression ([3]; verteporfin treatment of YAPS6A-overexpressing cells, C-peptide/NKX6.1 at stage 6 day 14) |
| --- | --- | --- | --- | --- | --- | --- | --- | --- | --- | --- | --- | --- | --- | --- | --- | --- |
| CC[C@H](CO)Nc1nc(NCc2ccccc2)c2ncn(C(C)C)c2n1 [roscovitine] | did not have the same effect | not observed |  |  |  |  |  |  |  |  |  |  |  |  |  |  |
| verteporfin |  | increase | 3.1 | robust | significantly higher | increase in insulin secretion at high glucose over low glucose | no statistically significant differences | twofold decrease | significant decrease | 12.1±2 | 38.6±3.9 | modest but significant increase | robust and independent of the genetic background | decrease | decrease | rescued |
